Each compound was assayed against USP1 (construct USP1 (I-785, GG670, 671AA)/UAF1 (I-677)-Flag) (Homo sapiens (Human), UniProt O94782, G670A/G671A) (assay: Ubiquitin-Rhodamine 110 assay for USP1 activity). Settings: USP1/UAF1 25 pM, Ub-Rh110 25 nM, 30 min preincubation.
Type: biochemical
In short: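 Two formats with the USP1/UAF1 complex and 25 nM ubiquitin-rhodamine 110 in pH 8.0 Tris buffer with calcium, glutathione and detergent. Single-point screening used 10 µM, 100 pM enzyme and 45 min. Inhibition was set against no-enzyme and DMSO wells.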

Chain of USP1 (construct USP1 (I-785, GG670, 671AA)/UAF1 (I-677)-Flag) (O94782 whole entry G670A/G671A): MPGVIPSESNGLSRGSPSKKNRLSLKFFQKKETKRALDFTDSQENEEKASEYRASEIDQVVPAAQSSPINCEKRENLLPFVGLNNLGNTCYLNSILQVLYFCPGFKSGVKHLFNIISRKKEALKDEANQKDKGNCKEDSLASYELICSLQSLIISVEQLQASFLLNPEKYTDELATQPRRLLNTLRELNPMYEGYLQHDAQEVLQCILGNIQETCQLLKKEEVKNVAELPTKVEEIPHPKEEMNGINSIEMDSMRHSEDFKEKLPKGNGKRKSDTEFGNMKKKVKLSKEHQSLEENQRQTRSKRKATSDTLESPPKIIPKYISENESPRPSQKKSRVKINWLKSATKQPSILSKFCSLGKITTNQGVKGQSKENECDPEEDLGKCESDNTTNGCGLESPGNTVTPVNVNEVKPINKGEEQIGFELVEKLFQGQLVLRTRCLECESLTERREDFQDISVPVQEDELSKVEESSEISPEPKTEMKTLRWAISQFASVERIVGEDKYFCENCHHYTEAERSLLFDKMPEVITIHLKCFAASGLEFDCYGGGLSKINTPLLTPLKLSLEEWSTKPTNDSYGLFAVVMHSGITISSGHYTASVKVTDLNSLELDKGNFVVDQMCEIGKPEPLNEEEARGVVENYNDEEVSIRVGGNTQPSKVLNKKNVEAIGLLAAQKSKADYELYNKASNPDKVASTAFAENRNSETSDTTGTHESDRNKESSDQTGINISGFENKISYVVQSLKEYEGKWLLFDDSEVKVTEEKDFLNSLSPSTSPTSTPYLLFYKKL
Chain of USP1 (construct USP1 (I-785, GG670, 671AA)/UAF1 (I-677)-Flag) (Q8TAF3 whole entry partner): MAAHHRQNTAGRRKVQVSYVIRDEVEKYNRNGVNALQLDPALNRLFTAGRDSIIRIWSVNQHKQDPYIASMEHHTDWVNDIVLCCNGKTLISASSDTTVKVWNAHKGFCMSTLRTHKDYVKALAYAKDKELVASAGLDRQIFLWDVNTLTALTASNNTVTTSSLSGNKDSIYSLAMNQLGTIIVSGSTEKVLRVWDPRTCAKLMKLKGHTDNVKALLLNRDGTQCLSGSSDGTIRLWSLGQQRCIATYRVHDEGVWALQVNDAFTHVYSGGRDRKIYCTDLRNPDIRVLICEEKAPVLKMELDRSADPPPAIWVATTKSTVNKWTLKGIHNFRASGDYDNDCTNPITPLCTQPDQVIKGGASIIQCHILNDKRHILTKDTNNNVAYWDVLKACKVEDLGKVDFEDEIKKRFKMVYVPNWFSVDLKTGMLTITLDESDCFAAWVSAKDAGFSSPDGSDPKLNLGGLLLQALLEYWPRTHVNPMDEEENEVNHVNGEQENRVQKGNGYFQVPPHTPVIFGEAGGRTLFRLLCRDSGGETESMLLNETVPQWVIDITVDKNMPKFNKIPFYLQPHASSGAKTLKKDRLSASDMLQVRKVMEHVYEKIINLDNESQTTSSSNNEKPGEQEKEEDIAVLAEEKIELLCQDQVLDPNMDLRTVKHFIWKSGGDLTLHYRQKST

Row | Structure (SMILES) | IC50
1 | CC(C)c1ccccc1-c1ncc2c(n1)n(Cc1ccc(OCc3ccccn3)cc1)c(=O)n2C [Compound I-231, 2-(2-isopropylphenyl)-7-methyl-9-(4-(pyridin-2-ylmethoxy)benzyl)-7,9-dihydro-8H-purin-8-one] | < 50 nM
2 | Cc1cn(C)c(-c2ccc(Cn3c(=O)n(C)c4cnc(-c5ccccc5C(C)C)nc43)cc2)n1 [Compound I-258, 9-(4-(1,4-dimethyl-1H-imidazol-2-yl)benzyl)-2-(2-isopropylphenyl)-7-methyl-7,9-dihydro-8H-purin-8-one] | < 50 nM
3 | CC(C)c1ccccc1-c1ncc2[nH]c(=O)n(Cc3ccc(-c4cn(C)cn4)cc3)c2n1 [Compound I-273, 2-(2-isopropylphenyl)-9-(4-(1-methyl-1H-imidazol-4-yl)benzyl)-7,9-dihydro-8H-purin-8-one] | < 50 nM
4 | CC(C)c1ccccc1-c1ncc2[nH]c(=O)n(Cc3ccc(C(=O)N4CCC[C@@H]4C)cc3)c2n1 [Compound I-395, (S)-2-(2-isopropylphenyl)-9-(4-(2-methylpyrrolidine-1-carbonyl)benzyl)-7,9-dihydro-8H-purin-8-one] | < 50 nM
5 | CC(C)c1ccccc1-c1ncc2c(n1)n(Cc1cccc(OCc3ccccn3)c1)c(=O)n2C [Compound I-242, 2-(2-isopropylphenyl)-7-methyl-9-(3-(pyridin-2-ylmethoxy)benzyl)-7,9-dihydro-8H-purin-8-one] | > 2000 nM
6 | O=c1[nH]c2cnc(-c3cc(C(F)(F)F)ccc3C3CC3)nc2n1Cc1ccc(-n2cccn2)cc1 [Compound I-97, 9-(4-(1H-pyrazol-1-yl)benzyl)-2-(2-cyclopropyl-5-(trifluoromethyl)phenyl)-7,9-dihydro-8H-purin-8-one] | 200 to 2000 nM
7 | COCCOc1ncccc1-c1ncc2[nH]c(=O)n(Cc3ccc(-c4nc(C(F)(F)F)cn4C)cc3)c2n1 [Compound I-423, 2-(2-(2-methoxyethoxy)pyridin-3-yl)-9-(4-(1-methyl-4-(trifluoromethyl)-1H-imidazol-2-yl)benzyl)-7,9-dihydro-8H-purin-8-one] | 50 to 200 nM
8 | CC(C)c1ncccc1-c1ncc2[nH]c(=O)n(Cc3ccc(-c4nc(C(F)(F)F)cn4C)c(F)c3)c2n1 [Compound I-83, 9-(3-fluoro-4-(1-methyl-4-(trifluoromethyl)-1H-imidazol-2-yl)benzyl)-2-(2-isopropylpyridin-3-yl)-7,9-dihydro-8H-purin-8-one] | < 50 nM
9 | CC(C)c1ccccc1-c1ncc2c(n1)n(Cc1ccc(-c3nc(C(F)(F)F)cn3C3CNC3)cc1)c(=O)n2C [Compound I-436, 9-(4-(1-(azetidin-3-yl)-4-(trifluoromethyl)-1H-imidazol-2-yl)benzyl)-2-(2-isopropylphenyl)-7-methyl-7,9-dihydro-8H-purin-8-one] | < 50 nM
10 | Cc1nc(-c2ccc(Cn3c(=O)[nH]c4cnc(-c5cccc(F)c5C(C)C)nc43)cc2)no1 [Compound I-188, 2-(3-fluoro-2-isopropylphenyl)-9-(4-(5-methyl-1,2,4-oxadiazol-3-yl)benzyl)-7,9-dihydro-8H-purin-8-one] | < 50 nM
11 | CC(C)c1c(F)cccc1-c1ncc2c(n1)n(Cc1ccc(-c3nc(C(F)(F)F)cn3C)cc1)c(=O)n2C [Compound I-65, 2-(3-fluoro-2-isopropylphenyl)-7-methyl-9-(4-(1-methyl-4-(trifluoromethyl)-1H-imidazol-2-yl)benzyl)-7,9-dihydro-8H-purin-8-one] | < 50 nM
12 | CC(C)c1ccc(F)cc1-c1ncc2c(n1)n(Cc1ccc(-n3cccn3)cc1)c(=O)n2C [Compound I-9, 9-(4-(1H-pyrazol-1-yl)benzyl)-2-(5-fluoro-2-isopropylphenyl)-7-methyl-7,9-dihydro-8H-purin-8-one] | 200 to 2000 nM
13 | Cn1cc(C(F)(F)F)nc1-c1ccc(Cn2c(=O)[nH]c3cnc(-c4ccccc4C(F)F)nc32)cc1 [Compound I-31, 2-(2-(difluoromethyl)phenyl)-9-(4-(1-methyl-4-(trifluoromethyl)-1H-imidazol-2-yl)benzyl)-7,9-dihydro-8H-purin-8-one] | < 50 nM
14 | CC(C)c1ccccc1-c1ncc2[nH]c(=O)n([C@@H]3CCOc4ccccc43)c2n1 [Compound I-159, (R)-9-(chroman-4-yl)-2-(2-isopropylphenyl)-7,9-dihydro-8H-purin-8-one] | 200 to 2000 nM
15 | Cn1ccc2cccc(-c3ncc4[nH]c(=O)n(Cc5ccc(-n6cccn6)cc5)c4n3)c21 [Compound I-29, 9-(4-(1H-pyrazol-1-yl)benzyl)-2-(1-methyl-1H-indol-7-yl)-7,9-dihydro-8H-purin-8-one] | 200 to 2000 nM
16 | COCCNc1ccc(Cn2c(=O)n(C)c3cnc(-c4ccccc4C(C)C)nc32)cc1 [Compound I-489, 2-(2-isopropylphenyl)-9-(4-((2-methoxyethyl)amino)benzyl)-7-methyl-7,9-dihydro-8H-purin-8-one] | 50 to 200 nM
17 | CC(C)c1ccccc1-c1ncc2[nH]c(=O)n(Cc3ccc(S(C)(=O)=O)cc3)c2n1 [Compound I-183, 2-(2-isopropylphenyl)-9-(4-(methylsulfonyl)benzyl)-7,9-dihydro-8H-purin-8-one] | > 2000 nM

Row | Structure (SMILES) | IC50
18 | CC(C)c1ccccc1-c1ncc2c(n1)n(Cc1cccc(OCC3CC3)c1)c(=O)n2C [Compound I-239, 9-(3-(cyclopropylmethoxy)benzyl)-2-(2-isopropylphenyl)-7-methyl-7,9-dihydro-8H-purin-8-one] | > 2000 nM
19 | CC(C)c1ccccc1-c1ncc2[nH]c(=O)n(CC3CCN(S(=O)(=O)C4CC4)CC3)c2n1 [Compound I-461, 9-((1-(cyclopropylsulfonyl)piperidin-4-yl)methyl)-2-(2-isopropylphenyl)-7,9-dihydro-8H-purin-8-one] | 50 to 200 nM
20 | Cn1cc(C(F)(F)F)nc1-c1ccc(Cn2c(=O)n(C3CC3)c3cnc(-c4ccccc4C4CC4)nc32)cc1 [Compound I-100, 7-cyclopropyl-2-(2-cyclopropylphenyl)-9-(4-(1-methyl-4-(trifluoromethyl)-1H-imidazol-2-yl)benzyl)-7,9-dihydro-8H-purin-8-one] | < 50 nM
21 | CC(C)c1ccccc1-c1ncc2[nH]c(=O)n(Cc3ccc(C(=O)NC4COC4)cc3)c2n1 [Compound I-381, 4-((2-(2-isopropylphenyl)-8-oxo-7,8-dihydro-9H-purin-9-yl)methyl)-N-(oxetan-3-yl)benzamide] | 200 to 2000 nM
22 | CC(C)c1ccccc1-c1ncc2[nH]c(=O)n(CC3CN(c4nccc(C(F)(F)F)n4)C3)c2n1 [Compound I-502, 2-(2-Isopropylphenyl)-9-((1-(4-(trifluoromethyl)pyrimidin-2-yl)azetidin-3-yl)methyl)-7,9-dihydro-8H-purin-8-one] | > 2000 nM
23 | COCCNC(=O)c1ccc(Cn2c(=O)[nH]c3cnc(-c4ccccc4C(C)C)nc32)cc1 [Compound I-352, 4-((2-(2-isopropylphenyl)-8-oxo-7,8-dihydro-9H-purin-9-yl)methyl)-N-(2-methoxyethyl)benzamide] | 200 to 2000 nM
24 | CC(C)c1ccccc1-c1ncc2[nH]c(=O)n(CC3CCN(c4cccnc4)CC3)c2n1 [Compound I-143, 2-(2-isopropylphenyl)-9-((1-(pyridin-3-yl)piperidin-4-yl)methyl)-7,9-dihydro-8H-purin-8-one] | 200 to 2000 nM
25 | CC(C)c1ccccc1-c1ncc2[nH]c(=O)n(Cc3ccc(-n4ccc([C@H]5CCCNC5)n4)cc3)c2n1 (single isomer, unassigned) [Compound I-225] | 50 to 200 nM
26 | CC(C)c1ccccc1-c1ncc2[nH]c(=O)n(Cc3ccc(-n4cccn4)cc3)c2n1 [Compound I-145, 9-(4-(1H-pyrazol-1-yl)benzyl)-2-(2-isopropylphenyl)-7,9-dihydro-8H-purin-8-one] | < 50 nM
27 | CC(C)Oc1ncccc1-c1ncc2[nH]c(=O)n(Cc3ccc(-c4nc(C(F)(F)F)cn4C)cc3)c2n1 [Compound I-416, 2-(2-isopropoxypyridin-3-yl)-9-(4-(1-methyl-4-(trifluoromethyl)-1H-imidazol-2-yl)benzyl)-7,9-dihydro-8H-purin-8-one] | < 50 nM
28 | CCCOc1ccccc1-c1ncc2[nH]c(=O)n(Cc3ccc(-n4cccn4)cc3)c2n1 [Compound I-21, 9-(4-(1H-pyrazol-1-yl)benzyl)-2-(2-propoxyphenyl)-7,9-dihydro-8H-purin-8-one] | 50 to 200 nM
29 | Cn1cc(C(F)(F)F)nc1-c1ccc(Cn2c(=O)n(C3CC3)c3cnc(-c4cccnc4C4CC4)nc32)cc1 [Compound I-101, 7-cyclopropyl-2-(2-cyclopropylpyridin-3-yl)-9-(4-(1-methyl-4-(trifluoromethyl)-1H-imidazol-2-yl)benzyl)-7,9-dihydro-8H-purin-8-one] | < 50 nM
30 | COc1ccc(-c2ncc3[nH]c(=O)n(Cc4ccc(-c5nc(C(F)(F)F)cn5C)cc4)c3n2)c(F)n1 [Compound I-75, 2-(2-fluoro-6-methoxypyridin-3-yl)-9-(4-(1-methyl-4-(trifluoromethyl)-1H-imidazol-2-yl)benzyl)-7,9-dihydro-8H-purin-8-one] | 50 to 200 nM
31 | CN(C)c1ccccc1-c1ncc2[nH]c(=O)n(Cc3ccc(-c4nc(C(F)(F)F)cn4C)cc3)c2n1 [Compound I-90, 2-(2-(dimethylamino)phenyl)-9-(4-(1-methyl-4-(trifluoromethyl)-1H-imidazol-2-yl)benzyl)-7,9-dihydro-8H-purin-8-one] | < 50 nM
32 | CC(C)c1ccccc1-c1ncc2[nH]c(=O)n(C3(c4ccc(-n5cccn5)cc4)CC3)c2n1 [Compound I-226, 9-(1-(4-(1H-pyrazol-1-yl)phenyl)cyclopropyl)-2-(2-isopropylphenyl)-7,9-dihydro-8H-purin-8-one] | < 50 nM
33 | CC(C)c1ccccc1-c1ncc2c(n1)n(Cc1ccc(-c3cccn4ccnc34)cc1)c(=O)n2C [Compound I-269, 9-(4-(imidazo[1,2-a]pyridin-8-yl)benzyl)-2-(2-isopropylphenyl)-7-methyl-7,9-dihydro-8H-purin-8-one] | < 50 nM

Source: US10189841B2, “Purinones as ubiquitin-specific protease 1 inhibitors” (Forma Therapeutics, Inc., priority 2015, dated 2019)
